Molecules are shown by their SMILES.

The values that follow come from patent US20130224110A1, “USE OF ADENOSINE RECEPTOR SIGNALING TO MODULATE PERMEABILITY OF BLOOD-BRAIN BARRIER” (CORNELL UNIVERSITY, priority 2010, published 2013).

One assay concerns ICAM-1. Briefly: ICAM-1 expression on the choroid plexus after EAE induction. Format: in vivo. Conditions: wild type mice after EAE induction, vs DMSO. On the procedure:
Anesthetized mice were perfused with PBS, and brains, spleens, and spinal cords were isolated and snap frozen in Tissue Tek-OCT medium. Five μm sections (brains in a sagittal orientation) were affixed to Supefrost/Plus slides (Fisher), fixed in acetone, and stored at −80° C. For immunostaining, slides were thawed and treated with 0.03% H2O2 in PBS to block endogenous peroxidase, blocked with Casein (Vector) in normal goat serum (Zymed), and then incubated with anti-CD45 (YW62.3), anti-CD4 (RM4-5), or anti-ICAM-1 (3E2). Slides were incubated with biotinylated goat anti-rat Ig (Jackson ImmunoResearch) and streptavidin-HRP (Zymed) and developed with an AEC (Red) substrate kit (Zymed) and a hematoxylin counterstain. […]
As CD73 catalyzes the breakdown of AMP to adenosine and ARs are expressed in the CNS (Tsutsui et al., “A1 Adenosine Receptor Upregulation and Activation Attenuates Neuroinflammation and Demyelination in a Model of Multiple Sclerosis,” J. Neurosci. 24:1521-1529 (2004)); Rosi et al., The Influence of Brain Inflammation Upon Neuronal Adenosine A2B Receptors,” J. Neurochem. 86:220-227 (2003), which are hereby incorporated by reference in their entirety), it was next determined if AR signaling is important during EAE progression. […] Since CD73 is highly expressed on the choroid plexus (FIG. 6C), it was next determined if ARs are also expressed on the choroid plexus. […]

In another assay the test system is Z310 cells. Briefly: Jurkat cell migration across Z310 choroid plexus cell transwell. Conditions: 24 hours, n=1. Format: cell-based, murine. The procedure: To test the hypothesis, Transwell membranes were seeded with Z310 cells and allowed to grow to confluencey. 2×10^6 Jurkat cells were added to the upper chamber with or with out NECA (n=1, general AR agonist), CCPA (n=1, A1 AR agonist), CGS 21860 (n=1, A2A AR agonist), or DMSO vehicle(n=1). After 24 hours, migrated cells in the lower chamber were counted. Values are relative to the number of cells that migrate through non-Z310 seeded transwells and the results are shown in FIG. 12.

For a further assay, the system named is blood brain barrier. Kind of assay: Evans Blue dye extravasation across the blood brain barrier in mice immunized for EAE. Format: in vivo. As to conditions: WT EAE mice, 100 μl 0.01 nM on days 1, 3, 5, 7, 9; dye on day 10. On the procedure:
In order to determine if activation of adenosine receptors would induce extravazation of Evans Blue dye across the blood brain barrier (BBB), mice were first treated on day one with NECA, a non-selective adenosine receptor agonist (n=2, 100 μl 0.01 nM); and, PBS as a vehicle control (n=2, 100 μl). On day 2 mice were then immunized with CFA-MOG35-55 and pertussis to induce EAE. Then NECA or PBS was administered every other day on day 3, day 5, day 7 and day 9. On day 10, mice were injected intravenously with 200 μl 1% Evans Blue dye ([…] total dye injected). Six hours after administration of Evans Blue, mice were anesthetized with a ketamine/xylazine mix and perfused via the left ventricle with ice cold PBS. Brains were harvested and homogenized in n,n-dimethylformamide (DMF) at 5 μl/mg (v:w). Tissue was incubated for 72 hours at room temperature in DMF to extract the dye. Following extraction, the tissue/solvent mixture was centrifuged at 500×g for 30 minutes and 100 μl of supernatant was read on a BioTex spectrophotometer at 620 nm.

For the compound `Nc1nc2c(cnn2CCc2ccccc2)c2nc(-c3ccco3)nn12` [SCH58261, 2-(2-Furanyl)-7-(2-phenylethyl)-7H-pyrazolo[4,3-e][1,2,4]triazolo[1,5-c]pyrimidin-5-amine], in the assay with ICAM-1, the “ICAM-1 up regulation on the choroid plexus” value is “prevented the up regulation of ICAM-1”.

Turning to `CCNC(=O)[C@H]1O[C@@H](n2cnc3c(N)ncnc32)[C@H](O)[C@@H]1O` [NECA, 5′-N-ethylcarboxamido adenosine], the “lymphocyte (Jurkat) migration across the CP” value with Z310 cells is recorded as “induced migration”. Also, the “BBB permeability to Evans Blue dye” value in the assay on blood brain barrier was “increase in BBB permeability over PBS control EAE mice”.
